# What was measured:
# Test in all cases: In vitro antifungal activity, microbroth dilution MIC
# Type in all cases: cell-based
# [1] = system: Trichophyton mentagrophytes A. 9129; details: for Minimal inhibitory concentration (MIC): T. mentagrophytes A. 9129, RPMI-1640, 35° C., 4 to 48 hours
# Method in brief: (§1)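 Broth microdilution adapted from NCCLS M27, in RPMI-1640 with 0.165 M MOPS, pH 7.0. Yeast or mould inoculum at 2×10^3 CFU/ml was mixed 1:1 with DMSO-derived compound solutions (200 to 0.10 μg/ml before mixing) and incubated at 35 °C for 4 to 48 h. MIC was the concentration showing no growth.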
# [2] = system: Candida tropicalis A. 13803; details: 4 to 48 hours; for Minimal inhibitory concentration (MIC): C. tropicalis A. 13803, RPMI-1640, 35° C.
# Method in brief: as §1
# [3] = system: Candida albicans A. 10231; details: 4 to 48 hours; for Minimal inhibitory concentration (MIC): C. albicans A. 10231, RPMI-1640, 35° C.
# Method in brief: as §1
# [4] = system: Aspergillus niger A. 16404; details: for Minimal inhibitory concentration (MIC): A. niger A. 16404, RPMI-1640, 35° C., 4 to 48 hours
# Method in brief: as §1
# [5] = system: Cryptococcus neoformans IFM. 40092; details: for Minimal inhibitory concentration (MIC): Cry. neoformans IFM. 40092, RPMI-1640, 35° C., 4 to 48 hours
# Method in brief: as §1
# [6] = system: Aspergillus furnigatus B. 19119; details: for Minimal inhibitory concentration (MIC): A furnigatus B. 19119, RPMI-1640, 35° C., 4 to 48 hours
# Method in brief: as §1
# [7] = system: Candida parapsitosis A. 7330; details: 4 to 48 hours; for Minimal inhibitory concentration (MIC): C. parapsitosis A. 7330, RPMI-1640, 35° C.
# Method in brief: as §1
# [8] = system: Candida pseudotropicalis K. 11658; details: 4 to 48 hours; for Minimal inhibitory concentration (MIC): C. pseudotropicalis K. 11658, RPMI-1640, 35° C.
# Method in brief: as §1
# [9] = system: Torulopsis glabrata B. 16205; details: 4 to 48 hours; for Minimal inhibitory concentration (MIC): T. glabrata B. 16205, RPMI-1640, 35° C.
# Method in brief: as §1
# [10] = system: Cryptococcus neoformans A. 34144; details: for Minimal inhibitory concentration (MIC): Cry. neoformans A. 34144, RPMI-1640, 35° C., 4 to 48 hours
# Method in brief: as §1
# [11] = system: Candida albicans IFO. 1385; details: 4 to 48 hours; for Minimal inhibitory concentration (MIC): C. albicans IFO. 1385, RPMI-1640, 35° C.
# Method in brief: as §1
# Candida krusei K. 11655 = details: 4 to 48 hours; for Minimal inhibitory concentration (MIC): C. krusei K. 11655, RPMI-1640, 35° C.
# Method in brief: as §1
# [12] = system: Trichophyton mentagrophytes B. 32663; details: for Minimal inhibitory concentration (MIC): T. mentagrophytes B. 32663, RPMI-1640, 35° C., 4 to 48 hours
# Method in brief: as §1
# Candida albicans C1-2 = details: 4 to 48 hours; for Minimal inhibitory concentration (MIC): C. albicans C1-2, RPMI-1640, 35° C.
# Method in brief: as §1
# [13] = system: Cryptococcus neoformans B. 42419; details: 4 to 48 hours; for Minimal inhibitory concentration (MIC): Cry. neoformans B. 42419, RPMI-1640, 35° C.
# Method in brief: as §1
# [14] = RPMI-1640, 35° C., no growth observed
Minimal inhibitory concentration (MIC) [1] [µg/mL],Minimal inhibitory concentration (MIC) [2] [µg/mL],Minimal inhibitory concentration (MIC) [3] [µg/mL],Minimal inhibitory concentration (MIC) [4] [µg/mL],Minimal inhibitory concentration (MIC) [5],Minimal inhibitory concentration (MIC) [6] [µg/mL],Minimal inhibitory concentration (MIC) [7] [µg/mL],Minimal inhibitory concentration (MIC) [8] [µg/mL],Minimal inhibitory concentration (MIC) [9] [µg/mL],Minimal inhibitory concentration (MIC) [10] [µg/mL],Minimal inhibitory concentration (MIC) [11],Minimal inhibitory concentration (MIC) (Candida krusei K. 11655) [µg/mL],Minimal inhibitory concentration (MIC) [12],Minimal inhibitory concentration (MIC) (Candida albicans C1-2) [µg/mL],Minimal inhibitory concentration (MIC) [13] [µg/mL],Compound,other results
6.25,25.0,12.5,12.5,0.78 µg/mL,6.25,12.5,12.5,6.25,1.56,1.56 µg/mL,12.5,1.56 µg/mL,12.5,1.56,Cc1cc(C)c(C=C(F)OCC2COC(Cn3ccnc3)(c3ccc(Cl)cc3Cl)O2)cc1C (stereo not drawn) [Ex. 7],–
0.39,25.0,6.25,1.56,≦0.10 μg/ml,0.78,6.26,3.13,3.13,0.20,≦0.10 μg/ml,6.25,≦0.10 μg/ml,3.13,0.20,FC(=Cc1cccc(F)c1)OCC1COC(Cn2ccnc2)(c2ccc(Cl)cc2Cl)O1 (stereo not drawn) [Ex. 15],–
–,–,–,–,–,–,–,–,–,–,–,–,–,–,–,Cc1cc(C)cc(C(=C(F)N2CCN(c3ccc(OCC4COC(Cn5ccnc5)(c5ccc(F)cc5F)O4)cc3)CC2)C(F)(F)F)c1 (mixture of isomers) [Ex. 141],"Minimal inhibitory concentration(MIC), T. mentagrophytes A. 9129 [1, 14]: 6.25 µg/mL; Minimal inhibitory concentration(MIC), C. tropicalis A. 13803 [2, 14]: >100 µg/mL; Minimal inhibitory concentration(MIC), C. albicans A. 10231 [3, 14]: >100 µg/mL; Minimal inhibitory concentration(MIC), A. niger A. 16404 [4, 14]: >100 µg/mL; Minimal inhibitory concentration(MIC), Cry. neoformans IFM. 40092 [5, 14]: 0.78 µg/mL; Minimal inhibitory concentration(MIC), A furnigatus B. 19119 [6, 14]: 50.0 µg/mL; Minimal inhibitory concentration(MIC), C. parapsitosis A. 7330 [7, 14]: 1.56 µg/mL; Minimal inhibitory concentration(MIC), C. pseudotropicalis K. 11658 [8, 14]: 3.13 µg/mL; Minimal inhibitory concentration(MIC), T. glabrata B. 16205 [9, 14]: 100 µg/mL; Minimal inhibitory concentration(MIC), Cry. neoformans A. 34144 [10, 14]: 1.56 µg/mL; Minimal inhibitory concentration(MIC), C. albicans IFO. 1385 [11, 14]: 0.78 µg/mL; Minimal inhibitory concentration(MIC), C. krusei K. 11655 (Candida krusei K. 11655; [14]): 1.56 µg/mL; Minimal inhibitory concentration(MIC), T. mentagrophytes B. 32663 [12, 14]: 0.78 µg/mL; Minimal inhibitory concentration(MIC), C. albicans C1-2 (Candida albicans C1-2; [14]): >100 µg/mL; Minimal inhibitory concentration(MIC), Cry. neoformans B. 42419 [13, 14]: 0.78 µg/mL"
1.56,12.5,6.25,6.25,0.39 µg/mL,3.13,12.5,12.5,6.25,1.56,0.39 µg/mL,25.0,0.78 µg/mL,6.25,1.56,FC(OCC1COC(Cn2ccnc2)(c2ccc(Cl)cc2Cl)O1)=C(c1cc(Cl)cc(Cl)c1)C(F)(F)F (mixture of isomers) [Ex. 34],–

# — patent publication US6376497B1, “Antifungal azole derivatives having a fluorinated vinyl group and process for preparing same” (Korea Research Institute of Chemical Technology, priority 1999, dated 2002)
